Assay results taken from patent US20120083522A1, “MODULATION OF INFLAMMATORY RESPONSES BY FACTOR XI” (Isis Pharmaceuitcals, inc., priority 2009, published 2012).
In the oligonucleotide strings, read from the 5' end, every base follows the letter of its sugar. An asterisk marks phosphorothioate; unmarked linkages are phosphodiester. Other units and linkages are bracketed, terminal groups are in braces. A string of capitals states the bases alone. e = 2'-O-(2-methoxyethyl) (MOE); [5mC] = 5-methylcytosine; d = 2'-deoxy (DNA)

Assays:
[1] = Cynomolgus monkeys: hematology assays (Example 29); format: in vivo
In short: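 Groups of 2 male and 3 female monkeys got subcutaneous oligonucleotide or PBS, escalating 5, 10, then 25 mg/kg two or three times weekly over 12 weeks; one group received a chronic 5 then 10 mg/kg regimen. Blood was sampled 14 and 5 days pre-dose, then weekly, for hematology; necropsy on day 85.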

[2] = test system: IFN-γ, IL-10, IL-12, IL-1β, IL-2, IL-4, IL-5, TNF-α, KC; experiment: Colitis Study E: cytokine levels in colon (multiplex ELISA); format: in vivo, Swiss Webb mice; settings: for IFN-γ level in the colon / IL-1β level in the colon / IL-2 level in the colon / IL-4 level in the colon / IL-5 level in the colon / IL-10 level in the colon / IL-12 level in the colon / KC level in the colon / TNF-α level in the colon: DSS-treated mice
Procedure: (§1) Two groups 8 Swiss Webb mice were dosed with 40 mg/kg of ISIS 404071 injected subcutaneously twice a week for 3 weeks. Two control groups of 8 Swiss Webb mice were dosed with PBS subcutaneously twice a week for 3 weeks. Both the ASO treated groups and one of the control groups were then given 4% DSS in distilled water for 7 days ad libitum. One of the ASO and DSS treated groups was also given intravenous injections of 20 μg of recombinant human Factor XI protein (Haematologic Technologies Inc.) for 7 consecutive days, starting the day before DSS treatment. Mice were sacrificed at the end of the study on day 7 after DSS was administered.
The cytokine levels of IFN-γ, IL-10, IL-12, IL-1β, IL-2, IL-4, IL-5, TNF-α, and keratinocyte chemoattractant (KC) were measured in the colon of the mice groups at the end of the study on day 7 after DSS was administered. Colons were homogenized on ice in PBS supplemented with protease inhibitors (Sigma, St. Louis, Mo.) and extracted with rotation at 4° C. for 1 hour. After removal of insoluble material by centrifugation, colon homogenates were used for the cytokine analysis by multiplex ELISA (Mouse TH1/TH2 9-Plex Ultra-Sensitive Kit, Meso Scale Discovery, Gaithersburg, Md.) according to the manufacture's protocol. Cytokine levels in colon extracts were normalized to the protein concentration measured by protein assay kit (BioRad, Hercules, Calif.). The levels of pro-inflammatory cytokines, IFN-γ, IL-1β, IL-10, IL-2, IL-5, TNF-α, and KC were elevated by DSS administration, and were decreased by treatment with ISIS 404071.

[3] = test system: Factor XI mRNA; experiment: Colitis Study E: Factor XI mRNA levels; format: in vivo, Swiss Webb mice; settings: compared to untreated PBS control; for % inhibition of Factor XI mRNA levels: DSS-treated mice, 40 mpk
Procedure: as §1

[4] = test system: OVA/alum-induced asthma model; experiment: OVA-induced asthma model: BAL eosinophil recruitment (Example 13); format: in vivo, BALB/c mice
Procedure: The effect of antisense oligonucleotide inhibition of Factor XI and its role in ameliorating asthma was evaluated in an OVA/alum-induced asthma model. Administration of ovalbumin to animals is a well known method to induce […] and has been previously described by Henderson et al. (J. Exp. Med., 1996, 184: 1483-1494).
The mice were divided into four treatment groups of 5 mice each. One group received subcutaneous injections of ISIS 404071 at a dose of 50 mg/kg twice a week for 4 weeks. One group of mice received subcutaneous injections of control oligonucleotide, ISIS 421208, which is a mismatch oligonucleotide sequence of ISIS 404071, at a dose of 50 mg/kg twice a week for 4 weeks. Two groups of mice received subcutaneous injections of PBS twice a week for 4 weeks. One PBS group remained untreated and served as the control group. The second PBS group and both the oligonucleotide treated groups were injected with OVA/alum on days 0 and 14 and nebulized with OVA in PBS on days 24, 25, and 26. The first OVA application served to sensitize the mice against OVA while the second was a challenge application to provoke an asthmatic reaction. Two days following the final dose, the mice were euthanized, bronchial lavage (BAL) was collected and analyses done.
Bronchial asthma, even in its mild form, is characterized by local infiltration and activation of inflammatory and immunoeffector cells, including T lymphocytes, macrophages, eosinophils, and mast cells (Smith D. L. et al., Am. Rev. Respir. Dis. 1993. 148: 523-532). The effect of treatment with ISIS 404071 on bronchoalveolar lavage (BAL) eosinophil recruitment was assessed. BAL cells were stained with hemotoxylin and eosin (H&E). The results are presented in Table 49 as a percentage of total cells in BAL.

Substance: ISIS 416850: gapmer of Table 8 (antisense eT*eG*e[5mC]*eA*e[5mC]*dA*dG*dT*dT*dT*d[5mC]*dT*dG*dG*d[5mC]*eA*eG*eG*e[5mC]*e[5mC])
- platelet count ([1]; day 8): 548000 µL⁻¹
- platelet count ([1]; day 8, chronic dose regimen (*)): 401000 µL⁻¹
- platelet count ([1]; day 15): 559000 µL⁻¹
- platelet count ([1]; day 15, chronic dose regimen (*)): 396000 µL⁻¹
- platelet count ([1]; day 22): 466000 µL⁻¹
- platelet count ([1]; day 22, chronic dose regimen (*)): 347000 µL⁻¹
- platelet count ([1]; day 29): 475000 µL⁻¹
- platelet count ([1]; day 29, chronic dose regimen (*)): 370000 µL⁻¹
- platelet count ([1]; day 36): 505000 µL⁻¹
- platelet count ([1]; day 36, chronic dose regimen (*)): 379000 µL⁻¹
- platelet count ([1]; day 43): 490000 µL⁻¹
- platelet count ([1]; day 43, chronic dose regimen (*)): 391000 µL⁻¹
- platelet count ([1]; day 50): 487000 µL⁻¹
- platelet count ([1]; day 50, chronic dose regimen (*)): 351000 µL⁻¹
- Monocytes ([1]; day 57): n.d. 3.2%
- platelet count ([1]; day 57): 528000 µL⁻¹
- Monocytes ([1]; day 64): n.d. 3.5%
- platelet count ([1]; day 64): 496000 µL⁻¹
- Monocytes ([1]; day 71): n.d. 4.7%
- platelet count ([1]; day 71): 465000 µL⁻¹
- Monocytes ([1]; day 78): n.d. 4.5%
- platelet count ([1]; day 78): 449000 µL⁻¹
- Monocytes ([1]; day 85): n.d. 3.5%
- platelet count ([1]; day 85): 458000 µL⁻¹
- platelet count ([1]; day −5): 573000 µL⁻¹
- platelet count ([1]; day −5, chronic dose regimen (*)): 434000 µL⁻¹
- platelet count ([1]; day −14): 528000 µL⁻¹
- platelet count ([1]; day −14, chronic dose regimen (*)): 387000 µL⁻¹

Substance: TGGTAATCCACTTTCAGAGG (eT*eG*eG*eT*eA*dA*dT*d[5mC]*d[5mC]*dA*d[5mC]*dT*dT*dT*d[5mC]*eA*eG*eA*eG*eG) [ISIS 404071, 5-10-5 MOE gapmer targeting murine Factor XI, target start site 869]
- pro-inflammatory cytokine levels in colon: IFN-γ, IL-1β, IL-10, IL-2, IL-5, TNF-α, KC (in words) ([2]; Colitis Study E, day 7): decreased
- IFN-γ level in the colon ([2]; day 7, no rFXI): 1.10 pg/mg
- IL-1β level in the colon ([2]; day 7, no rFXI): 50 pg/mg
- IL-2 level in the colon ([2]; day 7, no rFXI): 0.11 pg/mg
- IL-4 level in the colon ([2]; day 7, no rFXI): 0.012 pg/mg
- IL-5 level in the colon ([2]; day 7, no rFXI): 0.04 pg/mg
- IL-10 level in the colon ([2]; day 7, no rFXI): 4.7 pg/mg
- IL-12 level in the colon ([2]; day 7, no rFXI): 64 pg/mg
- KC level in the colon ([2]; day 7, no rFXI): 27 pg/mg
- TNF-α level in the colon ([2]; day 7, no rFXI): 0.24 pg/mg
- IFN-γ level in the colon ([2]; day 7, plus rFXI 20 ug/day): 4.51 pg/mg
- IL-1β level in the colon ([2]; day 7, plus rFXI 20 ug/day): 103 pg/mg
- IL-2 level in the colon ([2]; day 7, plus rFXI 20 ug/day): 0.28 pg/mg
- IL-4 level in the colon ([2]; day 7, plus rFXI 20 ug/day): 0.004 pg/mg
- IL-5 level in the colon ([2]; day 7, plus rFXI 20 ug/day): 0.17 pg/mg
- IL-10 level in the colon ([2]; day 7, plus rFXI 20 ug/day): 5.8 pg/mg
- IL-12 level in the colon ([2]; day 7, plus rFXI 20 ug/day): 96 pg/mg
- KC level in the colon ([2]; day 7, plus rFXI 20 ug/day): 62 pg/mg
- TNF-α level in the colon ([2]; day 7, plus rFXI 20 ug/day): 0.91 pg/mg
- Factor XI levels (in words) ([3]; Colitis Study E, 40 mg/kg): significantly decreased
- % inhibition of Factor XI mRNA levels ([3]; no human recombinant FXI): 82%
- % inhibition of Factor XI mRNA levels ([3]; plus human recombinant FXI 20 ug/mouse/day): 83%
- BAL eosinophil recruitment (in words) [4]: decreased the eosinophil recruitment
- Eosinophils ([4]; percentage of total cells in BAL, 50 mg/kg s.c. twice a week for 4 weeks): 32%
